Experimental data reported in US20230037448A1, “FLUORINATED QUINOLINE AND QUINOXALINE DERIVATIVES AS DIHYDROOROTATE DEHYDROGENASE (DHODH) INHIBITORS FOR THE TREATMENT OF CANCER, AUTOIMMUNE AND INFLAMMATORY DISEASES” (Janssen Biotech, Inc., priority 2019, published 2023).

Legend:
[1] = target: T1, human DHODH (Homo sapiens, UniProt Q02127); test: DHODH Enzymatic Assay; type: biochemical; conditions: purified human DHODH; DCIP absorbance, end-point mode
T1 construct: purchased Proteros PR-0044
Method: To detect DHODH enzyme activities, dichloroindophenol (DCIP) is added as the final electron acceptor in the assay. DCIP can accept electrons from the reduced coenzyme Q generated in the assay, or from dihydroorotate (DHO) via FMN by binding presumably to the ubiquinone pocket. DCIP solutions are blue, with an intense absorbance around 600 nm, but becomes colorless upon reduction (J. Biol. Chem. (1986) 261, 11386). The assay buffer contained […], pH 7.5, 150 mM NaCl, 0.5 mM EDTA, and 0.1% Triton X-100 in MilliQ water. Substrate consisting of 20 mM DHO, 5 mM CoQ6, and 1 mM DCIP in assay buffer, initiates the reaction. The assay is run in end-point mode by quenching the reaction with the potent DHODH inhibitor brequinar. Absorbance measurements were obtained using the BMG Phera Star plate-reading spectrophotomer. Purified human DHODH was purchased from Proteros (cat. No. PR-0044). Chemicals were purchased from Sigma-Aldrich, Teknova, and Avanti Polar Lipids. Liquid handling was performed using Labcyte Echo and Formulatrix Tempest.

[2] = system: MOLM-13 cells; test: MOLM-13 Cellular Assay; type: cell-based; conditions: 72 hours exposure, cell viability by CellTiter-Glo
Method: MOLM-13 cells were obtained from DSMZ and were maintained in RPMI 1640+Glutamax+25 mM HEPES (Invitrogen, catalog number 72400) supplemented with 10% heat inactivated fetal bovine serum (FBS; Invitrogen, catalog number 16140). The day prior to assay set-up, cells were pelleted, resuspended in fresh media, counted, and cells were plated at 0.4×10^6 cell/mL in a T150 flask. On the day of the assay, cells were pelleted, resuspend in fresh media, counted, and seeded at 5,000 cells/well in white opaque 96-well tissue culture treated microplates (Perkin Elmer, catalog number 6005680). Cells were exposed to different concentrations of test compounds at 37° C., 5% CO2 for 72 hours immediately after seeding. Cell viability was acquired on a Perkin Elmer Envision 2104 multilabel reader using the CellTiter-Glo assay (Promega) according to the manufacturer's instructions.

T1 sequence (Q02127 whole entry): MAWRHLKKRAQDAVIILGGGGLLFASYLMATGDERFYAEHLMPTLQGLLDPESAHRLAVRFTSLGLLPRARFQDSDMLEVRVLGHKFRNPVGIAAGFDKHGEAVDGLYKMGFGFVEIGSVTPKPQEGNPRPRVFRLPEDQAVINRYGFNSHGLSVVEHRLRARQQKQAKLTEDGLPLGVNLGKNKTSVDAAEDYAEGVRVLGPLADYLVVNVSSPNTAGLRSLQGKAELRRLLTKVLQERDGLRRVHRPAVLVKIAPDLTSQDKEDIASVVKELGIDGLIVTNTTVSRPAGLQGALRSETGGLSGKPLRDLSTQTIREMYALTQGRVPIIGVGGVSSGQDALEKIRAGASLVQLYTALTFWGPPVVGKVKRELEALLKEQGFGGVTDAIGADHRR

Row | Compound | IC50 [1] [nM] | IC50 [2] [nM] | IC50 ([2]; Homo sapiens, MOLM-13, 72 h) [nM]
1 | CCC(CC)Oc1cc(C(C)C)c2cc(-n3nc(CO)n(CC)c3=O)c(F)cc2n1 [Example 5, 4-Ethyl-1-(7-fluoro-4-isopropyl-2-(pentan-3-yloxy)quinolin-6-yl)-3-(hydroxymethyl)-1H-1,2,4-triazol-5 (4H)-one] | 332 | – | > 100
2 | CCn1c(CO)nn(-c2cc3c(C(C)C)cc(OC4CCC4)nc3cc2F)c1=O [Example 6, 1-(2-Cyclobutoxy-7-fluoro-4-isopropylauinolin-6-yl)-4-ethyl-3-(hydroxymethyl)-1H-1,2,4-triazol-5 (4H)-one] | 1080 | – | > 100
3 | CCn1c(CO)nn(-c2cc3c(C(C)C)cc(-c4c(C)ccnc4OC)nc3cc2F)c1=O [Example 11, 4-Ethyl-2-(7-fluoro-4-isopropyl-2-(2-methoxy-4-methylpyridin-3-yl)quinolin-6-yl)-5-(hydroxymethyl)-2,4-dihydro-3H-1,2,4-triazol-3-one] | 32 | – | 30
4 | CCN(CC)c1cc(C(C)C)c2cc(-n3nc(CO)n(CC)c3=O)c(F)cc2n1 [Example 13, 1-(2-(Diethylamino)-7-fluoro-4-isopropylquinolin-6-yl)-4-ethyl-3-(hydroxymethyl)-1H-1,2,4-triazol-5 (4H)-one] | 270 | – | > 100
5 | CCn1c(CO)nn(-c2cc3c(C(C)C)cc(N4CCCCC4)nc3cc2F)c1=O [Example 14, 4-Ethyl-1-(7-fluoro-4-isopropyl-2-(piperidin-1-yl)quinolin-6-yl)-3-(hydroxymethyl)-1H-1,2,4-triazol-5 (4H)-one] | 120 | – | 100
6 | CCn1c(CO)nn(-c2cc3c(C(C)C)cc(-c4c[nH]nc4C4CC4)nc3cc2F)c1=O [Example 15, 1-(2-(3-Cyclopropyl-1H-pyrazol-4-yl)-7-fluoro-4-isopropylquinolin-6-yl)-4-ethyl-3-(hydroxymethyl)-1H-1,2,4-triazol-5 (4H)-one] | 13 | – | 20
7 | CCn1c(CO)nn(-c2cc3c(C(C)C)cc(-c4c[nH]nc4C)nc3cc2F)c1=O [Example 16, 4-Ethyl-2-(7-fluoro-4-isopropyl-2-(3-methyl-1H-pyrazol-4-yl)quinolin-6-yl)-5-(hydroxymethyl)-2,4-dihydro-3H-1,2,4-triazol-3-one] | 9.4 | – | > 30
8 | CCn1c(CO)nn(-c2cc3c(C(C)C)cc(N4CCCC[C@@H]4C)nc3cc2F)c1=O [Example 17, (S)-4-Ethyl-2-(7-fluoro-4-isopropyl-2-(2-methylpiperidin-1-yl)quinolin-6-yl)-5-(hydroxymethyl)-2,4-dihydro-3H-1,2,4-triazol-3-one] | 230 | – | 40
9 | CCn1c(CO)nn(-c2cc3c(C(C)C)cc(N4CCCC[C@H]4C)nc3cc2F)c1=O [Example 18, (R)-4-Ethyl-2-(7-fluoro-4-isopropyl-2-(2-methylpiperidin-1-yl)quinolin-6-yl)-5-(hydroxymethyl)-2,4-dihydro-3H-1,2,4-triazol-3-one] | 2280 | – | > 100

These reach a lower IC50 [1]. Values come first.

Row | IC50 [1] [nM] | IC50 [2] [nM] | IC50 ([2]; Homo sapiens, MOLM-13, 72 h) [nM] | Compound
10 | 0.32 | 0.4 | – | CCn1c(CO)nn(-c2cc3c(C(C)C(F)(F)F)cc(-c4ccccc4C)nc3cc2F)c1=O (single isomer, unassigned) [Example 36, (S*)-4-Ethyl-1-(7-fluoro-2-(o-tolyl)-4-(1,1,1-trifluoropropan-2-yl)quinolin-6-yl)-3-(hydroxymethyl)-1H-1,2,4-triazol-5 (4H)-one]
11 | 5.3 | 1 | – | CCn1c(CO)nn(-c2cc3c(C(C)C(F)(F)F)cc(-c4ccccc4C)nc3cc2F)c1=O (single isomer, unassigned) [Example 37, (R*)-4-Ethyl-1-(7-fluoro-2-(o-tolyl)-4-(1,1,1-trifluoropropan-2-yl)quinolin-6-yl)-3-(hydroxymethyl)-1H-1,2,4-triazol-5 (4H)-one]
12 | 3.3 | – | 2.6 | CCn1c(CO)nn(-c2cc3c(C(C)C)cc(-c4ccccc4OC)nc3cc2F)c1=O [Example 1, 4-Ethyl-1-(7-fluoro-4-isopropyl-2-(2-methoxyphenyl)quinolin-6-yl)-3-(hydroxymethyl)-1H-1,2,4-triazol-5 (4H)-one]
13 | 0.49 | – | 1.7 | CCn1c(CO)nn(-c2cc3c(C(C)C)cc(-c4c(Cl)n[nH]c4C)nc3cc2F)c1=O [Example 2, 1-(2-(3-Chloro-5-methyl-1H-pyrazol-4-yl)-7-fluoro-4-isopropylauinolin-6-yl)-4-ethyl-3-(hydroxymethyl)-1H-1,2,4-triazol-5 (4H)-one]
14 | 0.58 | – | 0.7 | CCn1c(CO)nn(-c2cc3c(C(C)C)cc(-c4c(C(F)(F)F)n[nH]c4C)nc3cc2F)c1=O [Example 3, 4-Ethyl-1-(7-fluoro-4-isopropyl-2-(5-methyl-3-(trifluoromethyl)-1H-pyrazol-4-yl)quinolin-6-yl)-3-(hydroxymethyl)-1H-1,2,4-triazol-5 (4H)-one]
15 | 1.7 | – | 8.4 | CCn1c(CO)nn(-c2cc3c(C(C)C)cc(-c4c(C)cnc(OC)c4C)nc3cc2F)c1=O [Example 4, 4-Ethyl-1-(7-fluoro-4-isopropyl-2-(2-methoxy-3,5-dimethylpyridin-4-yl)quinolin-6-yl)-3-(hydroxymethyl)-1H-1,2,4-triazol-5 (4H)-one]
16 | 1.5 | – | 4 | CCn1c(CO)nn(-c2cc3c(C(C)C)cc(-c4c(C)cnc(OC)c4Cl)nc3cc2F)c1=O [Example 7, 1-(2-(3-Chloro-2-methoxy-5-methylpyridin-4-yl)-7-fluoro-4-isopropylquinolin-6-yl)-4-ethyl-3-(hydroxymethyl)-1H-1,2,4-triazol-5 (4H)-one]
17 | 4.8 | – | 9.1 | CCn1c(CO)nn(-c2cc3c(C(C)C)cc(-c4cc(OC)ncc4C)nc3cc2F)c1=O [Example 8, 4-Ethyl-1-(7-fluoro-4-isopropyl-2-(2-methoxy-5-methylpyridin-4-yl)quinolin-6-yl)-3-(hydroxymethyl)-1H-1,2,4-triazol-5 (4H)-one]
18 | 0.6 | – | 0.5 | CCn1c(CO)nn(-c2cc3c(C(C)C)cc(-c4ccccc4C)nc3cc2F)c1=O [Example 9, 4-Ethyl-1-(7-fluoro-4-isopropyl-2-(o-tolyl)quinolin-6-yl)-3-(hydroxymethyl)-1H-1,2,4-triazol-5 (4H)-one]
19 | 1.9 | – | 2.2 | CCn1c(CO)nn(-c2cc3c(C(C)C)nc(-c4ccccc4C)nc3cc2F)c1=O [Example 10, 4-Ethyl-2-(7-fluoro-4-isopropyl-2-(o-tolyl)quinazolin-6-yl)-5-(hydroxymethyl)-2,4-dihydro-3H-1,2,4-triazol-3-one]
20 | 2.3 | – | 5 | CCn1c(CO)nn(-c2cc3c(C(C)C)cc(-n4nc(C)cc4C)nc3cc2F)c1=O [Example 12, 1-(2-(3,5-Dimethyl-1H-pyrazol-1-yl)-7-fluoro-4-isopropylquinolin-6-yl)-4-ethyl-3-(hydroxymethyl)-1H-1,2,4-triazol-5 (4H)-one]
21 | 1.7 | – | – | [2H]C([2H])([2H])c1ccccc1-c1cc(C(C)C)c2cc(-n3nc(CO)n(CC)c3=O)c(F)cc2n1 [Example 38, 4-Ethyl-1-(7-fluoro-4-isopropyl-2-(o-methyl-d3-phenyl)quinolin-6-yl)-3-(hydroxymethyl)-1H-1,2,4-triazol-5 (4H)-one]
